# Data reported in patent US8809001B2, “High throughput assays for inhibitors and activators of PAQR receptors” (University of Florida Research Foundation, Inc., priority 2007, dated 2014).
# Where “and” joins values, the source holds several entries; their conditions need not be identical. Identical values can stand only once.
# Legend:
# mPRβ = biological target: T1, mPRβ (Homo sapiens, UniProt Q8TEZ7); assay: FET3-lacZ reporter repression in yeast expressing mPRβ; format: cell-based; details: Table 3, iron deficient LIM, 0.05% galactose
# T1 construct: expressed in transfected cells; host or cells: Saccharomyces cerevisiae BY4742, GAL1-driven pYES260 plasmid
# T1 sequence (Q8TEZ7 1-354): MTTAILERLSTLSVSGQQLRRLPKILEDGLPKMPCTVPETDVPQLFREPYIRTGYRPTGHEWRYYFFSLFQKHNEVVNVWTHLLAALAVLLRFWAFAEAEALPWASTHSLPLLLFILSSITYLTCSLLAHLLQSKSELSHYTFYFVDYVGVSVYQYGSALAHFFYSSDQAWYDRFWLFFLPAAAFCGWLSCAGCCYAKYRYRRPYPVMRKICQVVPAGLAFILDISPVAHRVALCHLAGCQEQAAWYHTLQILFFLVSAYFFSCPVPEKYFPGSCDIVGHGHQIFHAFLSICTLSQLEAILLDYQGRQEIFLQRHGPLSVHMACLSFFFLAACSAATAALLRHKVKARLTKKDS
# Source text: (§1) Plasmids and primers. Human PAQRs were cloned into various vectors by PCR from commercially/publically available cDNAs. PAQRs were cloned into the pYES260 (Melcher, 2000), pRS316 (Liu et al., 1992) or pGREG536 (Jansen et al., 2005) expression vectors using gap repair. The pJK90 plasmid containing a Dual Topology Reporter (DTR)-tagged OST4 gene driven by the constitutive TPI1 promoter was kindly provided by Dr. Gunnar von Heijne (Stockholm University) (Kim et al., 2003). The OST4 open reading frame in pJK90 was replaced with the PAQR6 and mPRα open reading frames by gap repair. Primers for all cloning reactions are listed herein. Proteins expressed in pYES260 have an N-terminal 6×-histidine tag followed by a TEV protease cleavage site. Proteins expressed in pGREG536 have an N-terminal 7×-HA tag. Proteins expressed in the pRS316 vector are untagged. The pYES260, pRS316 and pGREG536 vectors allow for galactose-inducible expression via the GAL1 promoter. […] The FET3-lacZ plasmid was previously described (Kupchak et al., 2007). […]
# (§2) Assays and growth conditions. […] Cells were allowed to grow to mid-log phase at which time the activity of the FET3 gene was monitored using a FET3-lacZ promoter-reporter construct. lacZ activities are presented as a percentage of activity seen in untreated cells expressing the appropriate empty expression vector control. […]
# PAQR9 = biological target: T2, PAQR9 (Homo sapiens, UniProt Q6ZVX9); assay: FET3-lacZ reporter repression in yeast expressing PAQR9; format: cell-based
# T2 construct: expressed in transfected cells; host or cells: Saccharomyces cerevisiae BY4742, GAL1-driven pYES260 plasmid
# T2 sequence (Q6ZVX9 1-377): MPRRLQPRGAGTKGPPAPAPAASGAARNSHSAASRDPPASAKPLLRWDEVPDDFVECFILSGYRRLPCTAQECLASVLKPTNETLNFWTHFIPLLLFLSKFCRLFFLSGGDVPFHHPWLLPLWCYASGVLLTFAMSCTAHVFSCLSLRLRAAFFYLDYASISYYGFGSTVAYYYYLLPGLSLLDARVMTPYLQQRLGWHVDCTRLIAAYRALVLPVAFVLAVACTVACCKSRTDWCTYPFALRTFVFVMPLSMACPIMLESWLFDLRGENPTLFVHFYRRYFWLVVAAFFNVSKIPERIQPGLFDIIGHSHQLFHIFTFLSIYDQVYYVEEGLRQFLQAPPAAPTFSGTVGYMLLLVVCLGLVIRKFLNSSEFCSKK
# Source text: Plasmids and primers. Human PAQRs were cloned into various vectors by PCR from commercially/publically available cDNAs. PAQRs were cloned into the pYES260 (Melcher, 2000), pRS316 (Liu et al., 1992) or pGREG536 (Jansen et al., 2005) expression vectors using gap repair. The pJK90 plasmid containing a Dual Topology Reporter (DTR)-tagged OST4 gene driven by the constitutive TPI1 promoter was kindly provided by Dr. Gunnar von Heijne (Stockholm University) (Kim et al., 2003). The OST4 open reading frame in pJK90 was replaced with the PAQR6 and mPRα open reading frames by gap repair. Primers for all cloning reactions are listed herein. Proteins expressed in pYES260 have an N-terminal 6×-histidine tag followed by a TEV protease cleavage site. Proteins expressed in pGREG536 have an N-terminal 7×-HA tag. Proteins expressed in the pRS316 vector are untagged. The pYES260, pRS316 and pGREG536 vectors allow for galactose-inducible expression via the GAL1 promoter. […] The FET3-lacZ plasmid was previously described (Kupchak et al., 2007). Plasmids derived from pADM4 carrying hyperactive alleles of Gpa1p (Gpa1p^Q323L) (Slessareva et al., 2006) and Gpa2p (Gpa2p^Q300L) (Harashima et al., 2002) driven by the ADH1 promoter were kindly provided by Dr. Henrik Dohlman (UNC Chapel Hill). A pRS316-based plasmid containing the STE2 gene under the control of the GAL1 promoter (Feng et al., 2000) was kindly provided by Dr. Nicholas G. Davis (Wayne State University).
# Assays and growth conditions. Strains were maintained using standard protocol and grown in synthetic defined (SD) media with the appropriate amino acids to match the auxotrophies of the individual strains. Low Iron Medium (LIM) contains EDTA to limit iron-bioavailability and its composition has been previously described (Kupchak et al., 2007). […] Cells were allowed to grow to mid-log phase at which time the activity of the FET3 gene was monitored using a FET3-lacZ promoter-reporter construct. lacZ activities are presented as a percentage of activity seen in untreated cells expressing the appropriate empty expression vector control. […]
# FET3 = assay: FET3-lacZ reporter in wild type yeast carrying empty expression plasmid; format: cell-based, Saccharomyces cerevisiae; details: no human PAQR
# Source text: Assays and growth conditions. Strains were maintained using standard protocol and grown in synthetic defined (SD) media with the appropriate amino acids to match the auxotrophies of the individual strains. Low Iron Medium (LIM) contains EDTA to limit iron-bioavailability and its composition has been previously described (Kupchak et al., 2007). […] In brief, overnights of cells grown in SD-glucose media were re-inoculated into iron-deficient LIM to induce the expression of FET3. 2% galactose was used as a carbon source to induce full expression of PAQR genes driven by the GAL1 promoter, while 0.05% galactose/1.95% raffinose was used for reduced PAQR expression. All ligands were added to the growth medium upon re-inoculation into LIM. For experiments in which steroids were added as ligands, steroids were added from ethanol stocks and “untreated” controls are actually treated with an equal volume of ethanol to control for vehicle effects. Cells were allowed to grow to mid-log phase at which time the activity of the FET3 gene was monitored using a FET3-lacZ promoter-reporter construct. lacZ activities are presented as a percentage of activity seen in untreated cells expressing the appropriate empty expression vector control. For individual experiments, each data point has been done in triplicate and the error bars represent +/−1 standard deviation. All experiments were performed at least three times and a representative experiment is shown. EC50 values were obtained using the web-based BioDataFit software using sigmoidal curve-fitting. (web site changbioscience.com/stat/ec50.html)
# [1] = test system: receptors in Classes I and III; assay: FET3-lacZ response of the human PAQR panel to 10 μM progesterone: Classes I and III; format: cell-based
# Source text: as §1, §2
compound,measurement,setting,value
"CC(=O)[C@H]1CC[C@H]2[C@@H]3CCC4=CC(=O)CC[C@]4(C)[C@H]3CC[C@]12C [Progesterone, progesterone]",EC50,mPRβ,1.6 nM and 1 to 3 nM
same,EC50,"PAQR9; PAQR9, Table 3",13.8 nM
same,EC50 for progesterone activation of PAQR9 relative to the other four Class II receptors,PAQR9; higher than the other four Class II receptors,approximately 10 fold
same,effect of ligand on FET3 in cells carrying empty expression plasmid,FET3,did not respond
same,agonist effect on receptors in Classes I and III,[1],ineffective
